# Active and inactive are the calls of the source. The calls are words filed in the database; no cut-off is given here.
# Legend:
# [1] = Toxicity in C57 mouse xenografted with mouse B16-F10 cells assessed as MCHC level at 3.5 mg/kg, ip qd for 12 days in presence of NP-19 by biochemical analysis (reference value: 324.000 to 683.000 g/L); type: organism-based; conditions: in vivo, 288 h, time 12 day
# [2] = system: B16-F10; assay: Antitumor activity against mouse B16-F10 cells xenografted in C57 mouse assessed as suppression of tumor growth at 7 mg/kg, ip qd for 12 days; type: functional, organism-based; conditions: time 12.0 day
# [3] = system: MCF7; assay: Induction of apoptosis in human MCF7 cells assessed as increase in Bax level upto 30 nM incubated for 24 hrs by Western blot analysis; type: functional, cell-based
# [4] = Toxicity in C57 mouse xenografted with mouse B16-F10 cells assessed as basophil count at 3.5 mg/kg, ip qd for 12 days in presence of NP-19 by biochemical analysis (reference value: 0.060 to 25.500 10^9/L); type: organism-based; conditions: in vivo, 288 h, time 12 day
# [5] = system: B16-F10; assay: Induction of cell cycle arrest in mouse B16-F10 cells assessed as accumulation of cells at G2 phase at 0.5 nM incubated for 12 hrs by flow cytometry (reference value: 13.6 %); type: functional
# [6] = Toxicity in C57 mouse xenografted with mouse B16-F10 cells assessed as morphological abnormality in heart at 3.5 mg/kg, ip qd for 12 days in presence of NP-19 by H and E staining based analysis; type: organism-based; conditions: in vivo, 288 h, time 12 day
compound,measurement,setting,value
Cc1nc(N(C)c2ccc3c(ccn3C)c2)c2sccc2n1,Activity,[1],343 g/L
same,Activity,[2],Active
same,Activity,[3],Active
same,Activity,[4],0.01 10^9/L
same,Activity,[5],58.9%
same,Activity,[6],Non-Toxic
